From PubChem BioAssay AID2060490 (Molecular Pharmacology Branch, DTP, NCI, 2025)

System: 885512-296-R-J2-PDC complex spheroid viability
Assay: Anticancer human tumor 885512-296-R-J2-PDC patient-derived breast carcinoma cell line growth inhibition [GQUAD]
Conditions: for IC50: curve of first compound; for viability, T/C: stronger effect = lower value
How it was run: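 Viability of tumor cells grown as complex spheroids with endothelial and stromal cells, exposed to drug combinations. Top concentration at or near clinical Cmax (else 10 microM), diluted in half-log increments.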

[1] = second compound 0.0316 µM, first compound 0.0316 µM
[2] = second compound 0.0316 µM, first compound 0.1 µM
[3] = second compound 0.0316 µM, first compound 0.316 µM
[4] = second compound 0.0316 µM, first compound 1 µM
[5] = second compound 0.0316 µM, first compound 3.16 µM
[6] = second compound 0.0316 µM, first compound 10 µM
[7] = second compound 0.1 µM, first compound 0.0316 µM
[8] = second compound 0.1 µM, first compound 0.1 µM
[9] = second compound 0.1 µM, first compound 0.316 µM
[10] = second compound 0.1 µM, first compound 1 µM
[11] = second compound 0.1 µM, first compound 3.16 µM
[12] = second compound 0.1 µM, first compound 10 µM
[13] = second compound 0.316 µM, first compound 0.0316 µM
[14] = second compound 0.316 µM, first compound 0.1 µM
[15] = second compound 0.316 µM, first compound 0.316 µM
[16] = second compound 0.316 µM, first compound 1 µM
[17] = second compound 0.316 µM, first compound 3.16 µM
[18] = second compound 0.316 µM, first compound 10 µM
[19] = second compound 1 µM, first compound 0.0316 µM
[20] = second compound 1 µM, first compound 0.1 µM
[21] = second compound 1 µM, first compound 0.316 µM
[22] = second compound 1 µM, first compound 1 µM
[23] = second compound 1 µM, first compound 3.16 µM
[24] = second compound 1 µM, first compound 10 µM
[25] = second compound 3.16 µM, first compound 0.0316 µM
[26] = second compound 3.16 µM, first compound 0.1 µM
[27] = second compound 3.16 µM, first compound 0.316 µM
[28] = second compound 3.16 µM, first compound 1 µM
[29] = second compound 3.16 µM, first compound 3.16 µM
[30] = second compound 3.16 µM, first compound 10 µM
[31] = second compound 10 µM, first compound 0.0316 µM
[32] = second compound 10 µM, first compound 0.1 µM
[33] = second compound 10 µM, first compound 0.316 µM
[34] = second compound 10 µM, first compound 1 µM
[35] = second compound 10 µM, first compound 3.16 µM
[36] = second compound 10 µM, first compound 10 µM
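Note: spheroids exposed to the compounds for one week.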
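Throughout, for viability, T/C: percent of tumor spheroid viability relative to DMSO vehicle control wells.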

C=CC(=O)N1CCN(c2nc(=O)n(-c3c(C)ccnc3C(C)C)c3nc(-c4c(O)cccc4F)c(F)cc23)C(C)C1 (stereo not drawn) + Cc1cnc(CNC(=O)c2c(=O)c3ccc(N4CCCN(C)CC4)nc3n3c2sc2ccccc23)cn1
IC50 (second compound 0.0316 µM): > 10000 nM
IC50 (second compound 0.1 µM): > 10000 nM
IC50 (second compound 0.316 µM): < 31.6 nM
IC50 (second compound 1 µM): < 31.6 nM
IC50 (second compound 3.16 µM): < 31.6 nM
IC50 (second compound 10 µM): < 31.6 nM
viability, T/C [1]: 90.5%
viability, T/C [2]: 81.3%
viability, T/C [3]: 107%
viability, T/C [4]: 105%
viability, T/C [5]: 99.1%
viability, T/C [6]: 76.9%
viability, T/C [7]: 60.9%
viability, T/C [8]: 66%
viability, T/C [9]: 68.5%
viability, T/C [10]: 67.5%
viability, T/C [11]: 79.5%
viability, T/C [12]: 47.3%
viability, T/C [13]: 35.9%
viability, T/C [14]: 29.3%
viability, T/C [15]: 33.8%
viability, T/C [16]: 31.1%
viability, T/C [17]: 33.6%
viability, T/C [18]: 24%
viability, T/C [19]: 23.4%
viability, T/C [20]: 30.9%
viability, T/C [21]: 33.2%
viability, T/C [22]: 24.1%
viability, T/C [23]: 22.6%
viability, T/C [24]: 28.3%
viability, T/C [25]: 34.5%
viability, T/C [26]: 31.4%
viability, T/C [27]: 19.4%
viability, T/C [28]: 27%
viability, T/C [29]: 29.8%
viability, T/C [30]: 32.3%
viability, T/C [31]: 0.14%
viability, T/C [32]: 0.2%
viability, T/C [33]: 0.24%
viability, T/C [34]: 0.2%
viability, T/C [35]: 0.2%
viability, T/C [36]: 1.55%

O=c1[nH]cc(F)c(=O)[nH]1 + Cc1[nH]c2ccc(F)cc2c1-c1nc2c3cccnc3c3ncccc3c2[nH]1
IC50 (second compound 0.0316 µM): > 10000 nM
IC50 (second compound 0.1 µM): > 10000 nM
IC50 (second compound 0.316 µM): > 10000 nM
IC50 (second compound 1 µM): > 10000 nM
IC50 (second compound 3.16 µM): < 31.6 nM
IC50 (second compound 10 µM): < 31.6 nM
viability, T/C [1]: 98.3%
viability, T/C [2]: 98.3%
viability, T/C [3]: 104%
viability, T/C [4]: 122%
viability, T/C [5]: 69.5%
viability, T/C [6]: 59.3%
viability, T/C [7]: 102%
viability, T/C [8]: 106%
viability, T/C [9]: 111%
viability, T/C [10]: 104%
viability, T/C [11]: 70.1%
viability, T/C [12]: 56.2%
viability, T/C [13]: 96.9%
viability, T/C [14]: 90.1%
viability, T/C [15]: 81.7%
viability, T/C [16]: 104%
viability, T/C [17]: 70.5%
viability, T/C [18]: 61.1%
viability, T/C [19]: 80.4%
viability, T/C [20]: 82.3%
viability, T/C [21]: 73.7%
viability, T/C [22]: 66.4%
viability, T/C [23]: 53.9%
viability, T/C [24]: 51.6%
viability, T/C [25]: 22%
viability, T/C [26]: 18.2%
viability, T/C [27]: 14.3%
viability, T/C [28]: 16.8%
viability, T/C [29]: 11.4%
viability, T/C [30]: 9.54%
viability, T/C [31]: 1.17%
viability, T/C [32]: 2.62%
viability, T/C [33]: 1.62%
viability, T/C [34]: 1.6%
viability, T/C [35]: 1.85%
viability, T/C [36]: 1.45%

O=c1[nH]cc(F)c(=O)[nH]1 + Cc1cnc(CNC(=O)c2c(=O)c3ccc(N4CCCN(C)CC4)nc3n3c2sc2ccccc23)cn1
IC50 (second compound 0.0316 µM): > 10000 nM
IC50 (second compound 0.1 µM): > 10000 nM
IC50 (second compound 0.316 µM): < 31.6 nM
IC50 (second compound 1 µM): < 31.6 nM
IC50 (second compound 3.16 µM): < 31.6 nM
IC50 (second compound 10 µM): < 31.6 nM
viability, T/C [1]: 90.9%
viability, T/C [2]: 75.9%
viability, T/C [3]: 87.1%
viability, T/C [4]: 69.5%
viability, T/C [5]: 59.4%
viability, T/C [6]: 52.1%
viability, T/C [7]: 68.3%
viability, T/C [8]: 70.2%
viability, T/C [9]: 54.4%
viability, T/C [10]: 66.3%
viability, T/C [11]: 51.1%
viability, T/C [12]: 56.8%
viability, T/C [13]: 30%
viability, T/C [14]: 27.2%
viability, T/C [15]: 23.6%
viability, T/C [16]: 19.8%
viability, T/C [17]: 38%
viability, T/C [18]: 36.1%
viability, T/C [19]: 29.9%
viability, T/C [20]: 28.4%
viability, T/C [21]: 26.4%
viability, T/C [22]: 28%
viability, T/C [23]: 23.1%
viability, T/C [24]: 27.6%
viability, T/C [25]: 23.5%
viability, T/C [26]: 27.8%
viability, T/C [27]: 22.4%
viability, T/C [28]: 20.4%
viability, T/C [29]: 29.4%
viability, T/C [30]: 24.1%
viability, T/C [31]: 0.1%
viability, T/C [32]: 0.16%
viability, T/C [33]: 0.21%
viability, T/C [34]: 0.13%
viability, T/C [35]: 0.19%
viability, T/C [36]: 0.16%

Cn1ncnc1[C@H]1c2n[nH]c(=O)c3cc(F)cc(c23)N[C@@H]1c1ccc(F)cc1 + Cc1[nH]c2ccc(F)cc2c1-c1nc2c3cccnc3c3ncccc3c2[nH]1
IC50 (second compound 0.0316 µM): 277 nM
IC50 (second compound 0.1 µM): 234 nM
IC50 (second compound 0.316 µM): 220 nM
IC50 (second compound 1 µM): 106 nM
IC50 (second compound 3.16 µM): < 0.999 nM
IC50 (second compound 10 µM): < 0.999 nM
viability, T/C (second compound 0.0316 µM, first compound 0.000999 µM): 108%
viability, T/C (second compound 0.0316 µM, first compound 0.00316 µM): 84.1%
viability, T/C (second compound 0.0316 µM, first compound 0.00999 µM): 89.5%
viability, T/C [1]: 86.8%
viability, T/C (second compound 0.0316 µM, first compound 0.0999 µM): 66.4%
viability, T/C [3]: 46.8%
viability, T/C (second compound 0.1 µM, first compound 0.000999 µM): 104%
viability, T/C (second compound 0.1 µM, first compound 0.00316 µM): 101%
viability, T/C (second compound 0.1 µM, first compound 0.00999 µM): 93.9%
viability, T/C [7]: 75.4%
viability, T/C (second compound 0.1 µM, first compound 0.0999 µM): 76.2%
viability, T/C [9]: 41.1%
viability, T/C (second compound 0.316 µM, first compound 0.000999 µM): 90.8%
viability, T/C (second compound 0.316 µM, first compound 0.00316 µM): 82.9%
viability, T/C (second compound 0.316 µM, first compound 0.00999 µM): 82.1%
viability, T/C [13]: 77.3%
viability, T/C (second compound 0.316 µM, first compound 0.0999 µM): 67%
viability, T/C [15]: 42.1%
viability, T/C (second compound 1 µM, first compound 0.000999 µM): 70.8%
viability, T/C (second compound 1 µM, first compound 0.00316 µM): 79.3%
viability, T/C (second compound 1 µM, first compound 0.00999 µM): 67.6%
viability, T/C [19]: 57.7%
viability, T/C (second compound 1 µM, first compound 0.0999 µM): 53.6%
viability, T/C [21]: 34.6%
viability, T/C (second compound 3.16 µM, first compound 0.000999 µM): 25.6%
viability, T/C (second compound 3.16 µM, first compound 0.00316 µM): 23.2%
viability, T/C (second compound 3.16 µM, first compound 0.00999 µM): 17.1%
viability, T/C [25]: 15.6%
viability, T/C (second compound 3.16 µM, first compound 0.0999 µM): 13.8%
viability, T/C [27]: 7.86%
viability, T/C (second compound 10 µM, first compound 0.000999 µM): 3.25%
viability, T/C (second compound 10 µM, first compound 0.00316 µM): 3.75%
viability, T/C (second compound 10 µM, first compound 0.00999 µM): 8.84%
viability, T/C [31]: 2.56%
viability, T/C (second compound 10 µM, first compound 0.0999 µM): 2.53%
viability, T/C [33]: 2.11%
